These results are taken from patent US9044463B2, “FSH receptor antagonists” (Merck Sharp & Dohme B.V., priority 2011, dated 2015).

One may read the IC50 as the point on the concentration scale where inhibition reaches its midpoint.

The assay has as its target T1, human FSH receptor (Homo sapiens, UniProt P23945).
T1 construct: expressed in transfected cells; host or cells: CHO (Chinese Hamster Ovary) cells, stably transfected; cotransfected with a CRE-luciferase reporter
T1 sequence (P23945 18-695): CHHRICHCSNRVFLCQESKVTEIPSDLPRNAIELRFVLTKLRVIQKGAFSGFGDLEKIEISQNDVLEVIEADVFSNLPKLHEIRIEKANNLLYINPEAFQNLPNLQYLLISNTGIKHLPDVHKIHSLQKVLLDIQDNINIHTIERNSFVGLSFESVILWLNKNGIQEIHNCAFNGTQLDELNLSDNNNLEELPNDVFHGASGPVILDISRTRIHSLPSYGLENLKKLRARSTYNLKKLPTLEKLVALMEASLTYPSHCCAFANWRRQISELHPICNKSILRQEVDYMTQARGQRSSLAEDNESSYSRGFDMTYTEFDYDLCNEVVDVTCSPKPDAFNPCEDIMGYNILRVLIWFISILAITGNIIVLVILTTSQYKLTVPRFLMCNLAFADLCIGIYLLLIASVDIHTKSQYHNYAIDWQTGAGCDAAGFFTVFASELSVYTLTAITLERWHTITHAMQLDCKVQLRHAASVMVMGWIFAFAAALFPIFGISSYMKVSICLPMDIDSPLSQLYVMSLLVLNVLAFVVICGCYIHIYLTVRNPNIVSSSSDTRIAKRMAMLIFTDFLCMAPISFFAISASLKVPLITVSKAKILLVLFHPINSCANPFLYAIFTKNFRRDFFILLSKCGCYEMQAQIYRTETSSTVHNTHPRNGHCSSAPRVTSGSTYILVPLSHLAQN
Kind of assay: Antagonistic activity at the human FSH receptor expressed in CHO cells (CRE-luciferase reporter). The following applies: CHO cells stably transfected with human FSH receptor and CRE-luciferase; with 49 μM recFSH; 4 hours incubation; read-out: IC50 (inhibition of recFSH-induced luciferase stimulation). Format: cell-based. Here is the method:
Antagonistic Activity of Compounds at the Human FSH Receptor Expressed in CHO Cells
Antagonistic activity of the compounds at the human FSH receptor was determined in Chinese Hamster Ovary (CHO) cells stably transfected with the human FSH receptor and cotransfected to with a cAMP responsive element (CRE)/promoter directing the expression of a firefly luciferase reporter gene. Binding of the compounds to the Gs protein-coupled FSH receptor will result in an increase of cAMP, which in turn will induce an increased transactivation of the luciferase reporter. The cells (7,500 cells/well of a 384 well plate) were incubated in Dulbecco′ minimal essential F12 modified medium (Invitrogen), supplemented with 1 μg/ml bovine insulin, 5 μg/ml human apo-transferrin, 100 U/ml penicillin G and 100 μg/ml streptomycin with the test compounds (concentration between 0.316 nM and 10.0 μM) in duplicate together with […] recFSH (which, at this concentration in the absence of test compound, induces 80% of the maximal luciferase stimulation) in a humidified atmosphere (95%) at 5-7% CO2 and 37° C. The final concentration of DMSO was 1%. After 4 hours of incubation, plates were allowed to adjust to room temperature for 1 hour. Then, SteadyLite (PerkinElmer) solution was added to the wells and cells were allowed to lyse for at least 1 hour at room temperature. Subsequently, luciferase activity was measured in a luminescence counter. The signal is expressed as counts per second (cps). The IC50 (concentration of test compound causing half-maximal (50%) inhibition of the maximally attainable inhibition of the luciferase stimulation by the compound) and efficacy of the compounds were determined using the software program MathIQ (version 2.3, ID Business Solutions Limited).
On the technique in general: In a reporter assay the amount or activity of a reporter protein is the signal.
As to `COc1cc2c(cc1OCC1CC1)COc1cc(-c3ccccc3F)c(C(=O)N[C@@H](CO)Cc3c[nH]c4ccccc34)cc1-2` [Example 49, 8-(cyclopropylmethoxy)-3-(2-fluorophenyl)-N—((R)-1-hydroxy-3-(1H-indol-3-yl)propan-2-yl)-9-s methoxy-6H-benzo[c]chromene-2-carboxamide], the IC50 is less than 100 nM.
Take `COc1cc2c(cc1-c1cccnc1)COc1cc(-c3ccccc3F)c(C(=O)N[C@@H](CO)Cc3c[nH]c4ccccc34)cc1-2` [Example 50, 3-(2-fluorophenyl)-N—((R)-1-hydroxy-3-(1H-indol-3-yl)propan-2-yl)-9-methoxy-8-(pyridin-3-v)-6H-benzo[c]chromene-2-carboxamide]: the concentration for half-maximal inhibition (IC50) is less than 100 nM.
For `COc1cc2c(cc1-c1cnn(C)c1)COc1cc(-c3ccccc3F)c(C(=O)N[C@@H](CO)Cc3c[nH]c4ccccc34)cc1-2` [Example 51, 3-(2-fluorophenyl)-N—((R)-1-hydroxy-3-(1H-indol-3-yl)propan-2-yl)-9-methoxy-8-(1-methyl-1H-pyrazol-4-yl)-6H-benzo[c]chromene-2-carboxamide], the IC50 was less than 100 nM.
Regarding `COc1cc2c(cc1-c1ccncc1)COc1cc(-c3ccccc3F)c(C(=O)N[C@@H](CO)Cc3c[nH]c4ccccc34)cc1-2` [Example 52, 3-(2-fluorophenyl)-N—((R)-1-hydroxy-3-(1H-indol-3-yl)propan-2-yl)-9-methoxy-8-(pyridin-4)-6H-benzo[c]chromene-2-carboxamide], the IC50 was less than 100 nM.
Regarding `O=C(N[C@@H](CO)Cc1c[nH]c2ccccc12)c1cc2c(cc1-c1ccccc1F)OCc1cc(C(=O)N3CCOCC3)ccc1-2` [Example 53, 3-(2-fluorophenyl)-N—((R)-1-hydroxy-3-(1H-indol-3-yl)propan-2-yl)-8-(morpholine-4-carbonyl)-6H-benzo[c]chromene-2-carboxamide], the IC50 is less than 100 nM.
Consider `CN(C)C(=O)c1ccc2c(c1)COc1cc(-c3ccccc3F)c(C(=O)N[C@@H](CO)Cc3c[nH]c4ccccc34)cc1-2` [Example 54, 3-(2-fluorophenyl)-N2-((R)-1-hydroxy-3-(1H-indol-3-yl)propan-2-yl)-N8,N8-dimethyl-6H-benzo[c]chromene-2,8-dicarboxamide], for which the IC50 is less than 100 nM.
Regarding `O=C(N[C@@H](CO)Cc1c[nH]c2ccccc12)c1cc2c(cc1-c1ccccc1F)OCc1cc3c(cc1-2)OCO3` [Example 55, 3-(2-fluorophenyl)-N—((R)-1-hydroxy-3-(1H-indol-3-yl)propan-2-yl)-8,9-(1′,3′-dioxolo)-6H-benzo[c]chromene-2-carboxamide], the concentration for half-maximal inhibition (IC50) was less than 100 nM.
Regarding `Cc1ccsc1-c1cc2c(cc1C(=O)N[C@@H](CO)Cc1c[nH]c3ccccc13)-c1cc3c(cc1CO2)OCO3` [Example 56, N—((R)-1-hydroxy-3-(1H-indol-3-yl)propan-2-yl)-8,9-(1′,3′-dioxolo)-3-(3-methylthiophen-2-yl)-6H-benzo[c]chromene-2-carboxamide], the 50% inhibitory concentration (IC50) was less than 100 nM.
Take `CC(C)Oc1cc2oc(=O)c3cc4c(cc3c2cc1C(=O)N[C@@H](CO)Cc1c[nH]c2ccccc12)OCO4` [Example 57, N—((R)-1-hydroxy-3-(1H-indol-3-yl)propan-2-v)-8,9-(1′,3′-dioxolo)-3-(3-isopropoxy)-6-oxo-6H-benzo[c]chromene-2-carboxamide]: the IC50 lay within 100 to 1000 nM.
`COc1cc2c(cc1OC)-c1cc(C(=O)N[C@@H](CO)Cc3c[nH]c4ccccc34)c(OC(C)C)cc1CC2` [Example 58, (R)-2-isopropoxy-N-(1-hydroxy-3-(1H-indol-3-yl)propan-2-yl)-6,7-dimethoxy-9,10-dihydrophenanthrene-3-carboxamide]: the IC50 is less than 100 nM.
